Where two headings read alike, the source gives them in different places.
Tests used:
Assay in all cases: biochemical
Format in all cases: biochemical
[1] = target: T1, 382 unique human kinases (Homo sapiens, UniProt Q8NG66); details: NEK11, compound at 10 uM, duplicate values; for remaining activity at 10 µM: read-out: % Enzyme Activity (relative to DMSO controls)
T1 construct: purchased Reaction Biology (HotSpot contract assay)
T1 sequence (Q8NG66 1-645): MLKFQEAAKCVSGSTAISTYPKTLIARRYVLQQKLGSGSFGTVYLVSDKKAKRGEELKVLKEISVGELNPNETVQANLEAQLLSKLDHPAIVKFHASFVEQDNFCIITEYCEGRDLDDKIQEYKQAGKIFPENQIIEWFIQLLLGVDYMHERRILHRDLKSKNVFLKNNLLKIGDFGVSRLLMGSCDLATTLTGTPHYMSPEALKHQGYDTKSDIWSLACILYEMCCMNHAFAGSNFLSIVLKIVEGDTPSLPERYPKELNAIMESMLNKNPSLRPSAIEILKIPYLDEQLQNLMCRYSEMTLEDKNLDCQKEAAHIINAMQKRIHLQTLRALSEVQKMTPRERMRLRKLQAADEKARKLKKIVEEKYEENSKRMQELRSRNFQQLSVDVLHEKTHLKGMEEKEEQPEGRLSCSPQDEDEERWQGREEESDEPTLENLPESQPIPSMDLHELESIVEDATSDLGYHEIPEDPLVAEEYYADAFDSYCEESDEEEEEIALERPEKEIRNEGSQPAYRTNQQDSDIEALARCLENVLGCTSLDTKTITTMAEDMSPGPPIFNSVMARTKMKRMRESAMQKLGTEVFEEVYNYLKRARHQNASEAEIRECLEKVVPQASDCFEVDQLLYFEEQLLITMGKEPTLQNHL

[2] = target: T2, 382 unique human kinases (Homo sapiens, UniProt Q02779); details: kinase MLK2/MAP3K10, compound 10 uM; for remaining activity at 10 µM: read-out: % Enzyme Activity (relative to DMSO controls)
T2 construct: purchased Reaction Biology (HotSpot contract assay)
T2 sequence (Q02779 whole entry): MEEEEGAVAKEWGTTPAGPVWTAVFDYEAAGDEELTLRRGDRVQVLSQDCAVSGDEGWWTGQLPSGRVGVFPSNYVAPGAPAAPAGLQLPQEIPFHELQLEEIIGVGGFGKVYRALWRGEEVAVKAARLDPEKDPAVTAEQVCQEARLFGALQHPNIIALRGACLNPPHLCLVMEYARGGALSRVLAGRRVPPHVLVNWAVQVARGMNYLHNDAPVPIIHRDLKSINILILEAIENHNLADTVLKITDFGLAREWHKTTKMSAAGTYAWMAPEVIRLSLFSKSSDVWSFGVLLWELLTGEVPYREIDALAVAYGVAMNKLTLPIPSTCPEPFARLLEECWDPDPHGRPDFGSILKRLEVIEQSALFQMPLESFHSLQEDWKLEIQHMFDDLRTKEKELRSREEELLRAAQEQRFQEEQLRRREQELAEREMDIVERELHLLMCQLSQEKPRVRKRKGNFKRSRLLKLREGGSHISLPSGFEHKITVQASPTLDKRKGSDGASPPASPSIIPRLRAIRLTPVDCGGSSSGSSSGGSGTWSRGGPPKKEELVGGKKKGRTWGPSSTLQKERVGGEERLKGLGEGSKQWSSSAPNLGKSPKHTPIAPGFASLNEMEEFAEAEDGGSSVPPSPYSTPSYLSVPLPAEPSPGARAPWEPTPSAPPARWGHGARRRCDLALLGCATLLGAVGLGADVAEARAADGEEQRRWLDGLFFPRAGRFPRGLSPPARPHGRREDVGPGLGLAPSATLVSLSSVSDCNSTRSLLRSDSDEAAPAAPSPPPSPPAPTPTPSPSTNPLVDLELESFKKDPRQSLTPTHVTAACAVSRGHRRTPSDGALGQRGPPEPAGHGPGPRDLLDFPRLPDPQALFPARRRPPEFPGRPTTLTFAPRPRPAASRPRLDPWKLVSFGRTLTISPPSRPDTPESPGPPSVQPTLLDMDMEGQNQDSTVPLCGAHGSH

[3] = target: T3, 382 unique human kinases (Homo sapiens, UniProt P00533, L858R/T790M); details: EGFR (L858R, T790M), 10 uM; for remaining activity at 10 µM: read-out: % Enzyme Activity (relative to DMSO controls)
T3 construct: purchased Reaction Biology (HotSpot contract assay)

[4] = target: T4, 382 unique human kinases (Homo sapiens, UniProt Q9BQI3); details: EIF2AK1, compound at 10 uM, duplicate values; for remaining activity at 10 µM: read-out: % Enzyme Activity (relative to DMSO controls)
T4 construct: purchased Reaction Biology (HotSpot contract assay)
T4 sequence (Q9BQI3 whole entry): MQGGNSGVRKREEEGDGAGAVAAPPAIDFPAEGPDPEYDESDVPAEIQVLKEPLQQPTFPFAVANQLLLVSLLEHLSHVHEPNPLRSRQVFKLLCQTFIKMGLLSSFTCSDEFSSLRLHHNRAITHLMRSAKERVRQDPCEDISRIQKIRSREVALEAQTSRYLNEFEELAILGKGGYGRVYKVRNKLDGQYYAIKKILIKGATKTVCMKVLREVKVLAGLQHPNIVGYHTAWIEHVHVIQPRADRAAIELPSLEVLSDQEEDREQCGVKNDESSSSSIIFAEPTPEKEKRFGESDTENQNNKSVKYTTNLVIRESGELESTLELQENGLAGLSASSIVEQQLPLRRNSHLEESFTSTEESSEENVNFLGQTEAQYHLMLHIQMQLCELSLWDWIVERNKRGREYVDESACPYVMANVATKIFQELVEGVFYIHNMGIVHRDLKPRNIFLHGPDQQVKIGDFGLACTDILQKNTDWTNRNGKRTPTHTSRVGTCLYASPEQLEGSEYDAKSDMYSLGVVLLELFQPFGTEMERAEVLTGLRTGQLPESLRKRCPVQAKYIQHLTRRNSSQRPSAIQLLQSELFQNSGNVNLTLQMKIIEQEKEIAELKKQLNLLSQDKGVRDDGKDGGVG

[5] = target: T5, 382 unique human kinases (Homo sapiens, UniProt O14757); details: CHK1, 10 uM; for remaining activity at 10 µM: read-out: % Enzyme Activity (relative to DMSO controls)
T5 construct: purchased Reaction Biology (HotSpot contract assay)
T5 sequence (O14757 1-476): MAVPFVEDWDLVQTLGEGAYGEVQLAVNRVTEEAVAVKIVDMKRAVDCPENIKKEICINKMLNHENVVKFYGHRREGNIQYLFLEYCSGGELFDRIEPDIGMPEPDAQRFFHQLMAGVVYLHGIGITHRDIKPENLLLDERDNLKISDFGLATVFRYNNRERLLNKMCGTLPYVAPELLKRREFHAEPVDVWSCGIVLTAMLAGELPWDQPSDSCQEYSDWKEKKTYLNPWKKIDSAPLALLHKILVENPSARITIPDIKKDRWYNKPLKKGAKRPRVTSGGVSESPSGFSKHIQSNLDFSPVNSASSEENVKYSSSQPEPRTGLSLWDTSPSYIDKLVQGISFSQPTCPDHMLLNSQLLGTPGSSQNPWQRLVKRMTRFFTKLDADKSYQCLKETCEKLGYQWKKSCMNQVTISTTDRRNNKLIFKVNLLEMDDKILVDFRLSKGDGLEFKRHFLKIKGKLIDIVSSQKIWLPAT

[6] = target: T6, 382 unique human kinases (Homo sapiens, UniProt Q02763); details: for remaining activity at 10 µM: read-out: % Enzyme Activity (relative to DMSO controls)
T6 construct: purchased Reaction Biology (HotSpot contract assay)

[7] = target: T7, 382 unique human kinases (Homo sapiens, UniProt P07332); details: FES/FPS, 10 uM; for remaining activity at 10 µM: read-out: % Enzyme Activity (relative to DMSO controls)
T7 construct: purchased Reaction Biology (HotSpot contract assay)
T7 sequence (P07332 whole entry): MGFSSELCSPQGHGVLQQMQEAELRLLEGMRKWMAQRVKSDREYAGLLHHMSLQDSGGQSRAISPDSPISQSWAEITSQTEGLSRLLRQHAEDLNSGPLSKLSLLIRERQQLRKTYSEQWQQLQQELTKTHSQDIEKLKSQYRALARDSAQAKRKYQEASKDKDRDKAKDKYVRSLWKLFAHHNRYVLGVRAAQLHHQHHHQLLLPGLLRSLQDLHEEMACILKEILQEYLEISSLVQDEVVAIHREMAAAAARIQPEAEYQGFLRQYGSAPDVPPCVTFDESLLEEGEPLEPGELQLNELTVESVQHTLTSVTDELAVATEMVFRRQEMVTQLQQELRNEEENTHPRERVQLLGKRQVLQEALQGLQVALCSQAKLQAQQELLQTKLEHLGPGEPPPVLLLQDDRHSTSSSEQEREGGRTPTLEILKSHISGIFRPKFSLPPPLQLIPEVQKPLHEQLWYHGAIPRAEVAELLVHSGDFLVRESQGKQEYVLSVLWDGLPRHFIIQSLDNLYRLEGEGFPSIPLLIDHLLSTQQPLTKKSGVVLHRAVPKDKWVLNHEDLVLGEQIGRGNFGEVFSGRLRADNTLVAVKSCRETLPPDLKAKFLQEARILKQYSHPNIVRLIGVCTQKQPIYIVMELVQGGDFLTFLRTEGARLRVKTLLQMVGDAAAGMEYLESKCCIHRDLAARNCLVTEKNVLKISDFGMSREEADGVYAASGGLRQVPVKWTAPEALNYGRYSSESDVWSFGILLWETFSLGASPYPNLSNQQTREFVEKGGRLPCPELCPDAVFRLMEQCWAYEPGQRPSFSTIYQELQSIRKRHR

[8] = target: T8, 382 unique human kinases (Homo sapiens, UniProt Q15120); details: PDK3/PDHK3, [ATP] 30 µM, compound 10 uM; for remaining activity at 10 µM: read-out: % Enzyme Activity (relative to DMSO controls)
T8 construct: purchased Reaction Biology (HotSpot contract assay)
T8 sequence (Q15120 whole entry): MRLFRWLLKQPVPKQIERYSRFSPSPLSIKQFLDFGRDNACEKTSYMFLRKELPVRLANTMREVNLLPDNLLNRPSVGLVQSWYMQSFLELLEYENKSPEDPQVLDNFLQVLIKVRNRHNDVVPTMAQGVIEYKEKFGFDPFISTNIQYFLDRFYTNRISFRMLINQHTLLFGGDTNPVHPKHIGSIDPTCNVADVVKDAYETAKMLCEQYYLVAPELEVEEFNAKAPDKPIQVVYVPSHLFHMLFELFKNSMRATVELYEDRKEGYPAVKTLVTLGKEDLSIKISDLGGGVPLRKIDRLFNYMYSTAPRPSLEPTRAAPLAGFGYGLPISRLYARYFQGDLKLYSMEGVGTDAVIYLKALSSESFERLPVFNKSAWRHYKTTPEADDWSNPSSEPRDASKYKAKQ

[9] = target: T9, 382 unique human kinases (Homo sapiens, UniProt P43250); details: GRK6, 10 uM; for remaining activity at 10 µM: read-out: % Enzyme Activity (relative to DMSO controls)
T9 construct: purchased Reaction Biology (HotSpot contract assay)
T9 sequence (P43250 whole entry): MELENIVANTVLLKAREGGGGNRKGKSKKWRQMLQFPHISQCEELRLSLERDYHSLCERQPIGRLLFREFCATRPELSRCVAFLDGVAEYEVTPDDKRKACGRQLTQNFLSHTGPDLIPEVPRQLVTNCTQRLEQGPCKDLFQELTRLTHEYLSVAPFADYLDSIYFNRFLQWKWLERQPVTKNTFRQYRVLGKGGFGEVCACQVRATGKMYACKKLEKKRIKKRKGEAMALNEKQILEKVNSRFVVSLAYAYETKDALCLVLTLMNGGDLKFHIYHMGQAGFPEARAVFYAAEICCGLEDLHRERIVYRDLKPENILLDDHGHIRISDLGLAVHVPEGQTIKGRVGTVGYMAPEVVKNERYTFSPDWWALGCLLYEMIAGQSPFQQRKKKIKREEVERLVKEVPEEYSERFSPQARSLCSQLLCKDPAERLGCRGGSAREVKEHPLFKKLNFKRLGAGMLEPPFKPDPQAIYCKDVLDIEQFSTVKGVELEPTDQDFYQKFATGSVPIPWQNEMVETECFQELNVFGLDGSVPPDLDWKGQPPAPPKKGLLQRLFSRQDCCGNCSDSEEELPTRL

[10] = target: T10, 382 unique human kinases (Homo sapiens, UniProt Q8N5S9); details: CAMKK1, 10 uM; for remaining activity at 10 µM: read-out: % Enzyme Activity (relative to DMSO controls)
T10 construct: purchased Reaction Biology (HotSpot contract assay)
T10 sequence (Q8N5S9 whole entry): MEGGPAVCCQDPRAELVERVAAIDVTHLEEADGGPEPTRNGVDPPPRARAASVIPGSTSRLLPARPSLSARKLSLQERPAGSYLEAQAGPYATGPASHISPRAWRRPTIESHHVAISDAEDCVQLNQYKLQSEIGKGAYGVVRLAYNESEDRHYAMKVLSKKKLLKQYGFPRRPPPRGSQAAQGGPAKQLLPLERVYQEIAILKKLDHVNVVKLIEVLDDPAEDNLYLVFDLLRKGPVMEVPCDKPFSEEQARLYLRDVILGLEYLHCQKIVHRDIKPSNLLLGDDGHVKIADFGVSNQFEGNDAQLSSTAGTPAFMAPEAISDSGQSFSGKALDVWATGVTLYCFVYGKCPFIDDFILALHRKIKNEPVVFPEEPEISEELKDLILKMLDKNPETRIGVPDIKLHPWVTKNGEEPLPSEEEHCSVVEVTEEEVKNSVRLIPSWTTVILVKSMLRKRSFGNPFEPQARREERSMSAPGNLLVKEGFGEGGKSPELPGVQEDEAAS

[11] = target: T11, 382 unique human kinases (Homo sapiens, UniProt P54762); details: EPHB1, [ATP] 100 µM, compound 10 uM; for remaining activity at 10 µM: read-out: % Enzyme Activity (relative to DMSO controls)
T11 construct: purchased Reaction Biology (HotSpot contract assay)
T11 sequence (P54762 18-984): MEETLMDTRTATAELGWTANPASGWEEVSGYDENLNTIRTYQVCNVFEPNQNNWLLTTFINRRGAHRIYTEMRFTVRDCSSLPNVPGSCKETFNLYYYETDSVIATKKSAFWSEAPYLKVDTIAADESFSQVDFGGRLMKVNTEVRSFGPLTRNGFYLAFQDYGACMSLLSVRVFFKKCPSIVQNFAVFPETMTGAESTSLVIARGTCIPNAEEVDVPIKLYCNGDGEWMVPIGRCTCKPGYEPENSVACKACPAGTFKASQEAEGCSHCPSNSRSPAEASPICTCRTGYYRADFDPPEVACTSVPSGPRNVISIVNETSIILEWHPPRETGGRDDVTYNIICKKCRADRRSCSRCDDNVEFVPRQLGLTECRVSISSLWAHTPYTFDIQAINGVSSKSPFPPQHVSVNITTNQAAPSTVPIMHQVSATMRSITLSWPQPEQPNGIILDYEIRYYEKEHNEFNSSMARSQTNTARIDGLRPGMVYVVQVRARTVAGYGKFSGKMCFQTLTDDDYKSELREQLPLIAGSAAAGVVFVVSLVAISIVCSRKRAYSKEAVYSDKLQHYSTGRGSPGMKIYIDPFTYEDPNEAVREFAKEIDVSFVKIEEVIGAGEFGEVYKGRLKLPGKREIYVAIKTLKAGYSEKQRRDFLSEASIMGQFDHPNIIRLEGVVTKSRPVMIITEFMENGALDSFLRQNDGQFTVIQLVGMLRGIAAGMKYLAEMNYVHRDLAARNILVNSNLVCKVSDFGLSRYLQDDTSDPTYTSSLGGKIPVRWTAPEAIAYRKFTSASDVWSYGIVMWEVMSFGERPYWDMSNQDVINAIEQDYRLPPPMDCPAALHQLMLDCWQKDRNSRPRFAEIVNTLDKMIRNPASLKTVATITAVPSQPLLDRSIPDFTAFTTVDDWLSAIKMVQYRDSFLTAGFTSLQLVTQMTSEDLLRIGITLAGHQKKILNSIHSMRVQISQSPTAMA

[12] = TIE2/TEK, compound at 10 uM, duplicate values

| SMILES | remaining activity at 10 µM [1] [%] | remaining activity at 10 µM [2] [%] | remaining activity at 10 µM [3] [%] | remaining activity at 10 µM [4] [%] | remaining activity at 10 µM [5] [%] | remaining activity at 10 µM ([6]; TIE2 (A1124V), 10 uM) [%] | remaining activity at 10 µM [6, 12] [%] | remaining activity at 10 µM [7] [%] | remaining activity at 10 µM [8] [%] | remaining activity at 10 µM [9] [%] | remaining activity at 10 µM [10] [%] | remaining activity at 10 µM [11] [%] | also measured |
| --- | --- | --- | --- | --- | --- | --- | --- | --- | --- | --- | --- | --- | --- |
| CC(C)c1cc(-c2n[nH]c(=O)n2-c2ccc3c(ccn3C)c2)c(O)cc1O [Ganetespib (STA9090)] | 117 | 98.6 | 91.5 | 110 | 74.7 | 71 | 101 | – | – | – | – | – | – |
| CC(C)c1cc(-c2n[nH]c(=O)n2-c2ccc3c(ccn3C)c2)c(O)cc1O [Ganetespib] | – | – | – | – | – | – | – | 98.6 | 22.3 | 97.2 | 99 | 36 | – |
| CCNC(=O)c1noc(-c2cc(C(C)C)c(O)cc2O)c1-c1ccc(CN2CCOCC2)cc1 [Luminespib (AUY-922)] | 102 | 91.1 | 73.8 | 127 | 106 | 96.5 | 108 | – | – | – | – | – | % Enzyme Activity (relative to DMSO controls) [1]: 100.52%; % Enzyme Activity (relative to DMSO controls) [2]: 89.74%; % Enzyme Activity (relative to DMSO controls) [3]: 61.22%; % Enzyme Activity (relative to DMSO controls) [4]: 122.69%; % Enzyme Activity (relative to DMSO controls) [5]: 105.20%; % Enzyme Activity (relative to DMSO controls) ([6]; TIE2 (A1124V), 10 uM): 95.16%; % Enzyme Activity (relative to DMSO controls) [6, 12]: 106.94% |
| CCNC(=O)c1noc(-c2cc(C(C)C)c(O)cc2O)c1-c1ccc(CN2CCOCC2)cc1 [Luminespib] | – | – | – | – | – | – | – | 99.4 | 76.8 | 97.2 | 104 | 92.3 | % Enzyme Activity (relative to DMSO controls) [7]: 99.33%; % Enzyme Activity (relative to DMSO controls) [8]: 75.85%; % Enzyme Activity (relative to DMSO controls) [9]: 96.43%; % Enzyme Activity (relative to DMSO controls) [10]: 103.58%; % Enzyme Activity (relative to DMSO controls) [11]: 90.73% |

Reference: article PMC8550792, “Evolution of kinase polypharmacology across HSP90 drug discovery” (Cell Chemical Biology, 2021)
